IC50 data for one molecule are collected here from PMC5651230, “TMC2 Modifies Permeation Properties of the Mechanoelectrical Transducer Channel in Early Postnatal Mouse Cochlear Outer Hair Cells” (Frontiers in Molecular Neuroscience, 2017).

In assay [1] the target is T1, MET channel of Tmc2−/− outer hair cells (TMC1-containing channel) (Mus musculus, UniProt Q8R4P5).
T1 construct: native MET channel complex in apical cochlear OHCs (P5-P6) of Tmc2 knockout mice; TMC1 the remaining TMC; full composition not known; with LHFPL tetraspan subfamily member 5 protein; Transmembrane inner ear expressed protein
T1 sequence (Q8R4P5 1-757): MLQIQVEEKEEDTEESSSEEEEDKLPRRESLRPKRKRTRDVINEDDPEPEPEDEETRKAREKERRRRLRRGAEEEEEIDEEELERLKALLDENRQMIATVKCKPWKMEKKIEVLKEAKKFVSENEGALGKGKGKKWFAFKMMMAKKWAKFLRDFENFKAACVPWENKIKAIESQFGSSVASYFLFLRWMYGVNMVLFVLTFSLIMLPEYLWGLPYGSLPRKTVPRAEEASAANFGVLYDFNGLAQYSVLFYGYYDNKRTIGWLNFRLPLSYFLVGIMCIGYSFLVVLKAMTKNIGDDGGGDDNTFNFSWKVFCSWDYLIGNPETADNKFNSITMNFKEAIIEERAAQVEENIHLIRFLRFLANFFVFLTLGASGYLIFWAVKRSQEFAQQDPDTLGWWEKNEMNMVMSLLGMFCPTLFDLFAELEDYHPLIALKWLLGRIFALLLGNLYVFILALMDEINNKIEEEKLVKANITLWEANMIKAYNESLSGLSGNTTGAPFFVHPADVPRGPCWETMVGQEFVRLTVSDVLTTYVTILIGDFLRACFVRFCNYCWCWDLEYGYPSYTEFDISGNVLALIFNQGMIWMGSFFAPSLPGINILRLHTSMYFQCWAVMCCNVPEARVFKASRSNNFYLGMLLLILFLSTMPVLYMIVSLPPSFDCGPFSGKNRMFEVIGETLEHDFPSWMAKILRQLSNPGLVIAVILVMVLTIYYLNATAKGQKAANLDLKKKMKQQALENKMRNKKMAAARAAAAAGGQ
The experiment in a line: whole-cell patch clamp of OHC, block of MET current (fluid jet), Hill fit. The class given is cell-based. Particulars: extracellular DHS, -81 mV, 1.3 mM Ca2+, pH 7.5, 20-25 °C; permeant open-channel pore blocker; native channel complex of Tmc2 knockout OHCs (P5-P6); read-out: KD. (The patch-clamp technique gives a direct electrical read-out from membranes.)

Assay [2] relates to T2, MET channel of Tmc2+/− outer hair cells (TMC1 and TMC2).
T2 construct: native MET channel complex in apical cochlear OHCs (P5-P6) of heterozygous control mice; mixture of TMC1 and TMC2 in unknown proportion; with LHFPL tetraspan subfamily member 5 protein; Transmembrane inner ear expressed protein
The description is as above. The class given is cell-based, Mus musculus. The conditions noted are these: extracellular DHS, -81 mV, 1.3 mM Ca2+, pH 7.5, 20-25 °C; permeant open-channel pore blocker; native channel complex of Tmc2 heterozygous OHCs (P5-P6); read-out: KD.

Molecules are shown by their SMILES.

Turning to `CN[C@@H]1[C@H](O[C@H]2[C@H](O[C@H]3[C@H](O)[C@@H](O)[C@H](NC(=N)N)[C@@H](O)[C@@H]3NC(=N)N)O[C@@H](C)[C@]2(O)CO)O[C@@H](CO)[C@H](O)[C@H]1O` [dihydrostreptomycin], the IC50 in assay [1] amounted to 5.9 ± 0.2 µM; in assay [2] it was 9.1 ± 0.4 µM.
